In brackets after ≈: the same amount, converted by molar mass. Activity calls are given as the source filed them. No cut-off for these calls is given here.
Columns and labels:
[1] = Apparent permeability across apical to basolateral side in human Caco2 cells; type: ADME, cell-based; conditions: Caco-2
Canis familiaris [2] = test: Inhibition of LPS/Bz-ATP-induced IL-1beta release in dog blood at 3 mg/kg, po after 4 to 96 hrs; type: functional, organism-based; conditions: Canis lupus familiaris
[3] = Antagonist activity at P2X7 in dog whole blood assessed as inhibition of BzATP-induced IL-1beta release preincubated for 30 mins followed by BzATP addition measured after […] by ELISA; conditions: Canis lupus familiaris
Canis familiaris [4] = test: Drug uptake in dog at 30 to 300 mg/kg administered via oral gavage on day 1 and day 5; type: ADME, organism-based, Canis lupus familiaris; conditions: in vivo
[5] = Solubility of compound in phosphate buffer at pH 7 after 3 days; type: physicochemical
P2X purinoceptor 7 [6] = molecular target: T1, P2X purinoceptor 7 (Mus musculus, UniProt Q9Z1M0); test: Antagonist activity at mouse P2X7 assessed as inhibition of BzATP-induced calcium flux preincubated for 30 mins followed by BzATP addition measured over 180 secs by FLIPR assay
T1 sequence (Q9Z1M0 whole entry): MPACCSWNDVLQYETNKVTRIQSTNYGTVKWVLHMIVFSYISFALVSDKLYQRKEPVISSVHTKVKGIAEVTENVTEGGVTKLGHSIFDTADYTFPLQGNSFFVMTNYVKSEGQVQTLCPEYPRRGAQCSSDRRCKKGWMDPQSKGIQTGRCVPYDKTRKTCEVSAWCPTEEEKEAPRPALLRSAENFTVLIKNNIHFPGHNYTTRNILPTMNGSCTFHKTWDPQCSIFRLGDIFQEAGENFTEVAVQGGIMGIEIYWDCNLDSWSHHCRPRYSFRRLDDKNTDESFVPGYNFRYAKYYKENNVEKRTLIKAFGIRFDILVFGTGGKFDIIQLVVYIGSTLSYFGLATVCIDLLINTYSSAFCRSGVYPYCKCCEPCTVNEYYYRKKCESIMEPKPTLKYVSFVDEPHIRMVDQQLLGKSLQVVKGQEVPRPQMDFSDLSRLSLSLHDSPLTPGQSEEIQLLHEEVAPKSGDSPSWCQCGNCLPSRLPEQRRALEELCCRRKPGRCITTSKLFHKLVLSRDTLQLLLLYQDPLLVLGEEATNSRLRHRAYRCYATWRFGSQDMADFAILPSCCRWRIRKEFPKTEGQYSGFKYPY

[7] = molecular target: P2X2/P2X3 heterotrimeric receptor (Homo sapiens) (UniProt Q9UBL9+P56373); test: Antagonist activity at P2X2/3 (unknown origin) assessed as inhibition of BzATP-induced calcium flux up to 10 uM preincubated for 30 mins followed by BzATP addition measured over 180 secs by FLIPR assay; type: protein-complex assay
Rattus norvegicus [8] = test: Ex vivo receptor occupancy at P2X7 in po dosed Sprague-Dawley rat brain after 60 mins by autoradiography; type: functional
Canis familiaris [9] = test: Toxicity in dog at 30 to 300 mg/kg administered via oral gavage on day 1 and day 5 by histopathological method; type: organism-based, Canis lupus familiaris; conditions: in vivo
[10] = molecular target: P2X purinoceptor 7 (Homo sapiens) (UniProt Q99572); conditions: 100 pM
P2X purinoceptor 7 (Homo sapiens), sequence (Q99572 whole entry): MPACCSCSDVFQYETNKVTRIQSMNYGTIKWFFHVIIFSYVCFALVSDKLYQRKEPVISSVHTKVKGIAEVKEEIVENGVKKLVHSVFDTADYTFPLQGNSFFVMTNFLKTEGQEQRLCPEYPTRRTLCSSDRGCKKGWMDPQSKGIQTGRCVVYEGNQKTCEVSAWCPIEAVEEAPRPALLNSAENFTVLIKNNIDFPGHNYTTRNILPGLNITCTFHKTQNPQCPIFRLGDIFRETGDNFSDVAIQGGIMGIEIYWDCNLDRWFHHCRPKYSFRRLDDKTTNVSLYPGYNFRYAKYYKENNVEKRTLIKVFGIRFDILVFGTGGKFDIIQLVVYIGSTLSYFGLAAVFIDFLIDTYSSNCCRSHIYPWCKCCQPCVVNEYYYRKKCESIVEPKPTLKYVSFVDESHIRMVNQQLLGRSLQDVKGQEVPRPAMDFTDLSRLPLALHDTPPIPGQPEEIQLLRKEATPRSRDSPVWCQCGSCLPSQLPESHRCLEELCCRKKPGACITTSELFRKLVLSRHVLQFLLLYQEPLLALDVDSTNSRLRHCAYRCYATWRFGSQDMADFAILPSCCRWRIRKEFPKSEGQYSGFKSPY
Description: Displacement of [3H]-(6S)-7-[[2-chloro-3-(trifluoromethyl)phenyl]methyl]-6-methyl-3-pyrimidin-2-yl-5,6dihydro[1,2,4]triazolo[4,3-a]pyrazin-8-one from P2X7 in human superior frontal gyrus at 100 pM to 10 uM

[11] = Volume of distribution at steady state in Sprague-Dawley rat at 1 mg/kg, iv or 5 mg/kg, po by LC-MS/MS analysis; type: ADME, organism-based; conditions: in vivo, read-out: Vdss
[12] = Protein binding in mouse plasma at 1 uM after 6 hrs by equilibrium dialysis method; type: ADME, cell-free; conditions: read-out: PPB (converted)
[13] = Half life in Sprague-Dawley rat at 1 mg/kg, iv by LC-MS/MS analysis; type: ADME, organism-based; conditions: in vivo
Rattus norvegicus [14] = test: Drug uptake in rat at 62.5 to 250 mg/kg administered via oral gavage on day 1 and day 4; type: ADME, organism-based; conditions: in vivo
Rattus norvegicus [15] = test: Ex vivo receptor occupancy at P2X7 in Sprague-Dawley rat brain at 10 mg/kg, po after 24 hrs by autoradiography; type: functional
[16] = molecular target: P2X purinoceptor 3 (Homo sapiens) (UniProt P56373); test: Antagonist activity at P2X3 (unknown origin) assessed as inhibition of BzATP-induced calcium flux up to 10 uM preincubated for 30 mins followed by BzATP addition measured over 180 secs by FLIPR assay
P2X purinoceptor 3 (Homo sapiens), sequence (P56373 whole entry): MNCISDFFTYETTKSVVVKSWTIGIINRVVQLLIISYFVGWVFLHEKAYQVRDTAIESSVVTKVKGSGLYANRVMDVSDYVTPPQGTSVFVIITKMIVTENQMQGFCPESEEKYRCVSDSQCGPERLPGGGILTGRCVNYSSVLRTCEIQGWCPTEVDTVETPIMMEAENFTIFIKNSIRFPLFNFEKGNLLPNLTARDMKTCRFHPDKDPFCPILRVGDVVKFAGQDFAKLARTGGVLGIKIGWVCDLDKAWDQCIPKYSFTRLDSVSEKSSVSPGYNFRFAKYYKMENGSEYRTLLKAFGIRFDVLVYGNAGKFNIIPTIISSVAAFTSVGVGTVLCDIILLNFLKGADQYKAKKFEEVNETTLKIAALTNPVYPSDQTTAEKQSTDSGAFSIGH

P2X purinoceptor = P2X purinoceptor (Macaca mulatta, UniProt G7N604); test: Antagonist activity at macaque P2X7 assessed as inhibition of BzATP-induced calcium flux preincubated for 30 mins followed by BzATP addition measured over 180 secs by FLIPR assay
P2X purinoceptor, sequence (G7N604 whole entry): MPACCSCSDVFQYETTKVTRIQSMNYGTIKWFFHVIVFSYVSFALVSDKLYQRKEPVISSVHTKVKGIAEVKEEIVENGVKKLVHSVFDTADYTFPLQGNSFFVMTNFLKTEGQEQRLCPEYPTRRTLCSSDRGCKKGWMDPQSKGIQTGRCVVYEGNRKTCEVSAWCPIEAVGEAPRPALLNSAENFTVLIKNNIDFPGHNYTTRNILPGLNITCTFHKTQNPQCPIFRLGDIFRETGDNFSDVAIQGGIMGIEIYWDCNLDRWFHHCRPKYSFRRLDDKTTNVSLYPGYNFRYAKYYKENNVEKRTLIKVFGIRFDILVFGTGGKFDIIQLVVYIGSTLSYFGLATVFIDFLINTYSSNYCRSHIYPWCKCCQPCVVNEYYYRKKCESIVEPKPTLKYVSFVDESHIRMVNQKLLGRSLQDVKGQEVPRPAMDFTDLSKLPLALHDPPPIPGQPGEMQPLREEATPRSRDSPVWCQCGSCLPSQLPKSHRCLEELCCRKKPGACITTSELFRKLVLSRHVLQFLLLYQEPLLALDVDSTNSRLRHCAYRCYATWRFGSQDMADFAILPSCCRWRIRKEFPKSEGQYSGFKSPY

[17] = Protein binding in human plasma at 1 uM after 6 hrs by equilibrium dialysis method; type: ADME, cell-free; conditions: read-out: PPB (converted)
[18] = Antagonist activity at dog P2X7 assessed as inhibition of BzATP-induced calcium flux preincubated for 30 mins followed by BzATP addition measured over 180 secs by FLIPR assay; parameters: species or system Canis lupus familiaris
[19] = Solubility of compound in phosphate buffer at pH 2 after 3 days; type: physicochemical
[20] = Volume of distribution at steady state in beagle dog at 0.5 mg/kg, iv or 2.5 mg/kg, po by LC-MS/MS analysis; type: ADME, organism-based, Canis lupus familiaris; conditions: in vivo, read-out: Vdss
Canis familiaris [21] = test: Ex vivo receptor occupancy at P2X7 in dog brain at 3 mg/kg, po after 96 hrs by autoradiography; type: functional, organism-based; conditions: Canis lupus familiaris
Cytochrome P450 2C8 = molecular target: T2, Cytochrome P450 2C8 (Homo sapiens, UniProt P10632); test: Inhibition of CYP2C8 in human liver microsomes using paclitaxel as substrate after 15 mins by LC-MS/MS analysis; type: ADME
T2 sequence (P10632 whole entry): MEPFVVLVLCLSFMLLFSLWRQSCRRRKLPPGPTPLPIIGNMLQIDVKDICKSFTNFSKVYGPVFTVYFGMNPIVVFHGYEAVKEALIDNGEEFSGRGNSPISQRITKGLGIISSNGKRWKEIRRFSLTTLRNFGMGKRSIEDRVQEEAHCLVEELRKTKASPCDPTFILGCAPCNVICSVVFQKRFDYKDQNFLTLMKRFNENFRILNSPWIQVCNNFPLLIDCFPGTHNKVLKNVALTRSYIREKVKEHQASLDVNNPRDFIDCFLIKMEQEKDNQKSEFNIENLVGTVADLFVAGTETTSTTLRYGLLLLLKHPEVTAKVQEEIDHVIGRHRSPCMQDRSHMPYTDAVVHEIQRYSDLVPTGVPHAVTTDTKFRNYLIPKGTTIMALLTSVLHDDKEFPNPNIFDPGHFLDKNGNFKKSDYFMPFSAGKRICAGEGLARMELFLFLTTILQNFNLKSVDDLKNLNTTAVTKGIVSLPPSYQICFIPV

Rattus norvegicus [22] = test: Inhibition of Bz-ATP-induced IL-1beta release in po dosed Sprague-Dawley rat hippocampus preincubated for 1 hr followed by Bz-ATP challenge measured after 2 hrs by microdialysis method; type: functional, organism-based
[23] = Clearance in cynomolgus monkey at 1 mg/kg, iv or 5 mg/kg, po by LC-MS/MS analysis; type: ADME, organism-based, Macaca fascicularis; conditions: in vivo
[24] = Clearance in Sprague-Dawley rat at 1 mg/kg, iv or 5 mg/kg, po by LC-MS/MS analysis; type: ADME, organism-based; conditions: in vivo
P2X purinoceptor 7 [25] = molecular target: T1, P2X purinoceptor 7; test: Antagonist activity at P2X7 in mouse whole blood assessed as inhibition of BzATP-induced IL-1beta release preincubated for 30 mins followed by BzATP addition measured after […] by ELISA
[26] = Oral bioavailability in Sprague-Dawley rat at 5 mg/kg by LC-MS/MS analysis; type: ADME, organism-based; conditions: in vivo
[27] = Protein binding in rat brain at 5 uM after 5 hrs by equilibrium dialysis method; type: ADME, tissue-based; conditions: read-out: PB (converted)
Liver = test: Metabolic stability in human liver microsomes at 1 uM after 5 to 60 mins by LC-MS/MS analysis; type: ADME, microsome
Cynomolgus monkey = test: Oral bioavailability in cynomolgus monkey at 5 mg/kg by LC-MS/MS analysis; type: ADME, organism-based, Macaca fascicularis; conditions: in vivo
[28] = molecular target: P2X purinoceptor 7 (Rattus norvegicus) (UniProt Q64663); test: Displacement of [3H]-(6S)-7-[[2-chloro-3-(trifluoromethyl)phenyl]methyl]-6-methyl-3-pyrimidin-2-yl-5,6dihydro[1,2,4]triazolo[4,3-a]pyrazin-8-one from P2X7 in rat frontal cortex at 100 pM to 10 uM
P2X purinoceptor 7 (Rattus norvegicus), sequence (Q64663 whole entry): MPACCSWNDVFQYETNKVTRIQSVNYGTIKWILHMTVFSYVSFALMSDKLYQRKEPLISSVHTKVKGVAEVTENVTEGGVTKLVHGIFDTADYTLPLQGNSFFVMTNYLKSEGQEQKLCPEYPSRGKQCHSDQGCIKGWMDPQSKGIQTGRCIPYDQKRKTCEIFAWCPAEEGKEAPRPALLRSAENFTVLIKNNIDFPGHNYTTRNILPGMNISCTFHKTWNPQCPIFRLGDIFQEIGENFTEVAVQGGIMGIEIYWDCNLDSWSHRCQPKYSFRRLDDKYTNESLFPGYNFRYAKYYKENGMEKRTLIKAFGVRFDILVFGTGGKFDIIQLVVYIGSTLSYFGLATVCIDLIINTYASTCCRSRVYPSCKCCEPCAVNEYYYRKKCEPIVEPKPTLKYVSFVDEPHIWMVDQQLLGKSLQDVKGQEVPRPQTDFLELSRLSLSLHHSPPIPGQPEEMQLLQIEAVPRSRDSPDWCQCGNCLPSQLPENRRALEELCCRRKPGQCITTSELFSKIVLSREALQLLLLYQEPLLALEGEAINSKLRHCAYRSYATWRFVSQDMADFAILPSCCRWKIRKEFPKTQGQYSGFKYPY

[29] = Apparent permeability across basolateral to apical side in human Caco2 cells; type: ADME, cell-based; conditions: Caco-2
[30] = Drug uptake in dog brain at 3 mg/kg, po after 168 hrs; type: ADME, organism-based, Canis lupus familiaris; conditions: read-out: Drug uptake
Homo sapiens = species: Homo sapiens; test: Toxicity in human at 0.5 to 600 mg
[31] = Half life in beagle dog at 0.5 mg/kg, iv by LC-MS/MS analysis; type: ADME, organism-based, Canis lupus familiaris; conditions: in vivo

With C[C@@H]1c2nnn(-c3ncc(F)cn3)c2CCN1C(=O)c1cccc(C(F)(F)F)c1Cl [JNJ-54175446] the Papp A→B [1] was 75.3 ×10⁻⁶ cm/s, the inhibition (Canis familiaris [2]) was “Active” and the IC50 [3] was 158 nM. For the same compound, the Drug uptake (Canis familiaris [4]) was “Active”, the solubility at 72 h [5] was 20.7 µM (≈ 9.12 µg/mL) and the IC50 (P2X purinoceptor 7 [6]) was 15.8 nM. The inhibition [7] was “inactive”, the Occ (Rattus norvegicus [8]) was “Dose-dependent effect” and the ED50 (Rattus norvegicus [8]; 1 h) was 0.46 mg/kg. The Activity (Canis familiaris [9]) was “Non-Toxic”, the inhibition [10] was “Dose-dependent effect” and the Vd [11] was 2.1 L/kg. The fraction unbound at 6 h, 1 µM [12] was 0.113, the half-life [13] was 8.6 h and the Drug uptake (Rattus norvegicus [14]) was “Active”. The Occ (Rattus norvegicus [15]) was greater than 80%, the inhibition [16] was “inactive” and the IC50 (P2X purinoceptor) was 7.94 nM. The fraction unbound at 6 h, 1 µM [17] was 0.112, the pIC50 [18] was 7.9 and the solubility at 72 h [19] was 38.7 µM (≈ 17.1 µg/mL). The Vd [20] was 2.5 L/kg, the Occ (Canis familiaris [21]) was “Active” and the IC50 (Cytochrome P450 2C8) was 9600 nM. For the same compound, the inhibition (Rattus norvegicus [22]) was “Dose-dependent effect”, the clearance [23] was 4.4 mL/min/kg and the clearance [24] was 2.9 mL/min/kg. The IC50 (P2X purinoceptor 7 [25]) was 31.6 nM, the bioavailability [26] was 96% and the fraction unbound at 5 h, 5 µM [27] was 0.051. For the same compound, the Stability (Liver) was “Stable”, the F (Cynomolgus monkey) was 157% and the inhibition [28] was “Dose-dependent effect”. For the same compound, the Papp B→A [29] was 48.8 ×10⁻⁶ cm/s, the concentration at 168 h [30] was no more than 500 nM and the Activity (Homo sapiens) was “Non-Toxic”. The half-life [31] was 32 h.

From ChEMBL document CHEMBL4052642, “4-Methyl-6,7-dihydro-4H-triazolo[4,5-c]pyridine-Based P2X7 Receptor Antagonists: Optimization of Pharmacokinetic Properties Leading to the Identification of a Clinical Candidate” (J Med Chem, 2017)
